In patent publication US10607721B2, “High-throughput, multi-omics approach to determine and validate de novo global mechanisms of action for drugs and toxins” (Vanderbilt University, priority 2015, dated 2020):

What was measured:
Format in all cases: cell-based, Human
A549 cells [1] = assay: Multi-omics analysis (transcriptome, proteome, phosphoproteome, metabolome)
Method: Samples were analyzed for transcriptome changes by RNA sequencing at the Genomics Services Lab, HudsonAlpha, for proteome changes by label free, SILAC, and phospho-enriched SILAC LC-MS/MS, and metabolome changes by UPLC-IM-MS and data-independent acquisition (MSE) using both hydrophilic-interaction liquid chromatography and reverse phase liquid chromatography.
For proteomic and metabolomic label-free analyses, five sterile indium tin oxide (ITO)-coated glass slides (Delta Technologies) were placed in a tissue culture flask with removable lid (TPP). […] For proteomic analyses, slides were removed and washed 3 times with PBS, placed on dry ice, flash-frozen in liquid nitrogen, and stored at −80° C. prior to lysis. For metabolomics analysis, slides were washed in 50 mM ammonium formate.
For SILAC experiments, A549 cells were cultured in SILAC media for two weeks to ensure isotopic amino acid incorporation (verified by proteomic analysis). […] Following treatment cells were washed 3 times with 4° C. PBS. For phospho-SILAC, cells were washed with 4° C. PBS containing 1 mM sodium orthovanadate.
RNA was isolated using the RNeasy Mini Kit (Qiagen). For each time point, untreated and cisplatin-treated samples were isolated in triplicate and analyzed by the Genomics Services Lab at HudsonAlpha. RNAseq was performed using poly(A) selection on an Illumina HiSeq v4 sequencing platform. Reads were paired-end with a read length of 50 bp and 50 million reads per sample.
Cells were scraped from slides and lysed in 300 μL of 50 mM Tris pH 8, 150 mM NaCl, 1% Nonidet 40, 1 mM EDTA with added HALT Protease Inhibitor Cocktail (Thermo Scientific), centrifuged, and assayed for protein concentration (BCA Protein Assay, Thermo Scientific Pierce) using a SpectraMax M2e Microplate Reader with SoftMax Pro software version 5 (Molecular Devices). Aliquots of 100 μg of protein were acetone precipitated in six times the volume for 2 h at −80° C. Precipitates were washed three times with cold acetone and reconstituted in 10 μL of neat trifluoroethanol (TFE) and 10 μL of 100 mM Tris (pH 8.0). Samples were reduced with 1 μL of 0.5 M Tris(2-carboxyethyl)phosphine hydrochloride (TCEP) for 30 minutes at room temperature and alkylated with 2 μL of 0.5 M IAA for 30 minutes at room temperature in the dark. Samples were diluted with 100 mM Tris (pH 8.0) to obtain a final solution containing 10% TFE. The samples were digested with 2 μg of trypsin (a ratio of 50:1 protein 273 to enzyme) overnight at 37° C. A solution of 60% formic acid (FA) was added to the samples until they reached pH 3. Aliquots of 5 μg of digested sample were desalted using C18 spin tips (Protea) according to the supplied protocol and dried samples were reconstituted in 15 μL of 0.1% FA. Five replicates of cisplatin treated and control (untreated) cells were prepared in parallel.
Samples were analyzed on a Thermo Scientific Orbitrap Fusion Tribrid mass spectrometer in line with a Thermo Scientific Easy-nLC 1000 UHPLC system. Samples, 2 μL, were injected via the autosampler and loaded onto a Thermo Scientific Acclaim PepMap 100 C18 UHPLC column (75 μm×250 mm, 2 μm particle size, 100 Å pore size), with 0.1% FA in water (mobile phase A). Peptides were separated over a 140 minute two-step gradient with initial conditions set to 100% mobile phase A for 5 minutes before ramping to 20% mobile phase B, 0.1% FA in ACN, over 100 minutes and then 32% mobile phase B over 20 minutes. The remainder of the gradient was spent washing at 95% mobile phase B and returning to initial conditions. Eluted peptides were ionized via positive mode nanoelectrospray ionization (nESI) using a Nanospray Flex ion source (Thermo Fisher Scientific). The mass spectrometer was operated using a 3 second top speed data-dependent acquisition mode. Fourier transform mas spectra (FTMS) were collected using 120,000 resolving power, an automated gain control (AGC) target of 200,000, and a maximum injection time of 50 ms. […]

A549 cells [2] = assay: Molecular screening assay (MALDI FTICR MS, molecular variance score)
Method: After incubation for the respective times, wells were washed 3 times with PBS and stored at −80° C. The effect of different toxin dosage amounts and exposure times on the molecular content of a sample may be evaluated and reported directly for thousands of molecular species based upon the mass spectra that were collected for each of the samples. A comparison of the mass-to-charge (m/z) peak content between spectra from dosed cells and a reference spectrum from a non-dosed control sample delivers a mass spectrometric assessment of toxicity-induced molecular variation. However, seeking a data-driven global comparison instead of focusing on specific molecular species of interest makes the assessment of molecular change between the different experimental conditions very complex and high-dimensional. To determine which dosage amount induces the greatest molecular change, the inventors developed a quick and broad assessment of toxicity-induced molecular variance summarizing the entire recorded mass range. […]
Within each time point (represented by a 24-well plate), seven different dosage conditions were measured: six different toxin dosages and one reference condition (e.g., untreated). Per dosage condition there were nine distinct replicate measurements made: each dosage condition was represented by three replicate wells, from which three technical replicate spectra were measured per well. […]

A549 cells [3] = assay: Apoptosis assay (ApoONE, caspase 3/7 activation); conditions: 50 μM cisplatin
Method: Cell viability and apoptosis were assessed by CellTiter Glo (Promega) and ApoONE (Promega) kits, respectively. Molecular changes were screened using a MALDI-FTICR MS platform.
Human lung carcinoma A549 cells were obtained from ATCC (Manassas, Va.) and cultured in Dulbecco's Modified Eagle's Medium (DMEM, Gibco) with 10% v/v heat-inactivated fetal bovine serum (Atlanta Biologicals) and 1% v/v penicillin/streptomycin (P/S) (Gibco) at 37° C. with 5% CO2 atmosphere. Stable isotope labeling by amino acids in cell culture (SILAC) media were prepared using SILAC DMEM (Thermo Scientific) containing 10% v/v dialyzed heat-inactivated FBS (Fisher), 1% v/v P/S, proline (250 mg/L) (Thermo Scientific), and appropriate light and heavy labeled arginine (84 mg/L), lysine (146 mg/L). […]
At each time point, cell viability and apoptosis were assessed by CellTiter-Glo (Promega) and ApoONE (Promega) kits, respectively. Plates were incubated at 37° C. in a plate reader (BioTek) with data 174 acquisition every 10 min by luminescence (1 s read time, 200 gain) and fluorescence (485 nm excitation, 528 nm emission). […] Cell viability was also assessed using the LIVE/DEAD Viability/Cytotoxicity Kit for mammalian cells (ThermoFisher). […]

[4] = 50 μM cisplatin for 1, 6, 24 and 48 h

## N.N.[Cl][Pt][Cl] [cisplatin]
A549 cells [1]; 50 μM cisplatin
  BAD phosphorylation (pSer75 at 48 h; pSer118 at 24 h and 48 h): increased
A549 cells [1]; [4]
  share of unique detected species significantly changed: 24%
  unique species significantly changed: 13,483
A549 cells [1]; 50 μM cisplatin, 1, 6, 24, 48 h
  phosphorylated ERK1 and/or ERK2 (pThr202/pTyr204; pThr185/pTyr187): increased at each time point
A549 cells [1]; 50 μM cisplatin, 6 and 24 h
  ATP1A1 peptides: decreased significantly
A549 cells [1]; 50 μM cisplatin, 1 h
  CUL4B C-terminal peptide: increased
A549 cells [1]; 50 μM cisplatin, 6 h
  Ncx1 transcript: significant decrease
A549 cells [1]; 50 μM cisplatin, 24 h
  BAK1: increased
  CASP9 transcript: downregulation
  phosphorylated mTOR at pS1166: increased
A549 cells [1]; 50 μM cisplatin, 48 h
  HUWE1 abundance: decreased
A549 cells [1]; 50 μM cisplatin, beginning at 24 h
  p53 pSer392: increased significantly
A549 cells [1]; 50 μM cisplatin, starting at 6 h
  p53 pSer313, pSer314 and/or pSer315: increased significantly
A549 cells [1]; 50 μM cisplatin, E1 up at 1 h, E1 and E2 up at 6 h, decreased by 24 h
  estrogen species (E1, E2): transiently increased
A549 cells [1]; 50 μM cisplatin, no proteomic abundance changes
  BAX, CYCS, APAF1 and CASP3 transcripts: transcriptional upregulation
A549 cells [2]; 50 μM
  earliest time at which cisplatin-induced toxicity is measurable: ≤ 1 h
A549 cells [2]; exposure 1 and 6 h molecular screen, 24 h caspase assay
  optimal dose (maximum response in physiological and molecular screen, cell viability >50%): 50 μM
A549 cells [3]
  caspase activation over time: ceased after 48 h
  time of maximal caspase activation: 24 h
